Values after ≈ are worked out from the molar mass of the structure shown.
Assays:
[1] = test system: Salmonella typhimurium; assay: Antibacterial activity against Salmonella typhimurium DT104 assessed as reduction in bacterial growth inhibition measured after 24 hrs by Mueller Hinton Agar dilution method; type: functional, Salmonella enterica subsp. enterica serovar Typhimurium; settings: Salmonella enterica
[2] = test system: Vibrio parahaemolyticus; assay: Antibacterial activity against Vibrio parahaemolyticus assessed as reduction in bacterial growth inhibition measured after 24 hrs by Mueller Hinton Agar dilution method; type: functional
[3] = test system: Salmonella enterica subsp. enterica serovar Paratyphi B; assay: Antibacterial activity against Salmonella paratyphi B CICC 21495 assessed as reduction in […]; type: functional; settings: time lower 48 hrs
[4] = test system: Edwardsiella tarda; assay: Antimicrobial activity against Edwardsiella tarda assessed as inhibition of microbial growth incubated for 18 hrs by CLSI protocol based Mueller-Hinton broth assay; type: functional
[5] = test system: Vibrio cholerae; assay: Antibacterial activity against Vibrio cholerae assessed as inhibition of bacterial growth incubated for 24 hrs by broth microdilution method; type: functional
[6] = test system: Staphylococcus aureus; assay: Antimicrobial activity against Staphylococcus aureus assessed as inhibition of microbial growth incubated for 18 hrs by CLSI protocol based Mueller-Hinton broth assay; type: functional
[7] = test system: Escherichia coli; assay: Antimicrobial activity against Escherichia coli assessed as inhibition of microbial growth incubated for 18 hrs by CLSI protocol based Mueller-Hinton broth assay; type: functional
[8] = test system: Vibrio cholerae; assay: Antibacterial activity against Vibrio cholerae measured after 18 to 20 hrs by broth microdilution method; type: functional; settings: time 18-20 hrs
[9] = test system: Enterococcus faecalis; assay: Antimicrobial activity against Enterococcus faecalis assessed as inhibition of microbial growth incubated for 18 hrs by CLSI protocol based Mueller-Hinton broth assay; type: functional
[10] = test system: Salmonella typhimurium; assay: Antimicrobial activity against Salmonella typhimurium DT104 assessed as inhibition of microbial growth incubated for 18 hrs by CLSI protocol based Mueller-Hinton broth assay; type: functional, Salmonella enterica subsp. enterica serovar Typhimurium; settings: Salmonella enterica
[11] = test system: Pseudomonas aeruginosa; assay: Antimicrobial activity against Pseudomonas aeruginosa assessed as inhibition of microbial growth incubated for 18 hrs by CLSI protocol based Mueller-Hinton broth assay; type: functional
[12] = test system: Klebsiella pneumoniae; assay: Antimicrobial activity against Klebsiella pneumoniae assessed as inhibition of microbial growth incubated for 18 hrs by CLSI protocol based Mueller-Hinton broth assay; type: functional
[13] = test system: Staphylococcus epidermidis; assay: Antimicrobial activity against Staphylococcus epidermidis assessed as inhibition of microbial growth incubated for 18 hrs by CLSI protocol based Mueller-Hinton broth assay; type: functional
[14] = test system: Salmonella enterica; assay: Antimicrobial activity against Salmonella enterica assessed as inhibition of microbial growth incubated for 18 hrs by CLSI protocol based Mueller-Hinton broth assay; type: functional
[15] = test system: Aeromonas hydrophila; assay: Antibacterial activity against Aeromonas hydrophila assessed as inhibition of microbial growth incubated for 24 hrs by CLSI protocol based Mueller-Hinton broth assay; type: functional
[16] = test system: Vibrio cholerae; assay: Antibacterial activity against Vibrio cholerae assessed as reduction in bacterial growth measured after 18 to 20 hrs by broth microdilution method; type: functional; settings: time 18-20 hrs
[17] = test system: Bacillus subtilis; assay: Antibacterial activity against Bacillus subtilis assessed as reduction in bacterial growth incubated for 24 hrs by CLSI protocol based Mueller-Hinton broth assay; type: functional
[18] = test system: Shigella sonnei; assay: Antibacterial activity against Shigella sonnei assessed as inhibition of bacterial growth measured after 18 to 20 hrs by broth microdilution method; type: functional; settings: time 18-20 hrs
[19] = test system: Shigella boydii; assay: Antibacterial activity against Shigella boydii assessed as inhibition of bacterial growth measured after 18 to 20 hrs by broth microdilution method; type: functional; settings: time 18-20 hrs
[20] = test system: Plesiomonas shigelloides; assay: Antibacterial activity against Plesiomonas shigelloides assessed as inhibition of bacterial growth measured after 18 to 20 hrs by broth microdilution method; type: functional; settings: time 18-20 hrs
[21] = test system: Providencia rettgeri; assay: Antibacterial activity against Providencia rettgeri assessed as bacterial growth inhibition incubated for 18 hrs by CLSI protocol based Mueller-Hinton broth assay; type: functional
[22] = test system: Shigella flexneri; assay: Antibacterial activity against Shigella flexneri assessed as inhibition of bacterial growth incubated for 24 hrs by broth microdilution method; type: functional
[23] = test system: Proteus vulgaris; assay: Antimicrobial activity against Proteus vulgaris assessed as microbial growth inhibition incubated for 24 hrs by broth microdilution method; type: functional
[24] = test system: Enterobacter sp.; assay: Antibacterial activity against Enterobacter sp. assessed as inhibition of bacterial growth; type: functional
[25] = test system: Morganella morganii; assay: Antibacterial activity against Morganella morganii UM869 incubated for 16 to 18 hrs by broth microdilution method; type: functional; settings: time 16-18 hrs
[26] = test system: Citrobacter freundii; assay: Antibacterial activity against multidrug-resistant Citrobacter freundii assessed as bacterial growth inhibition incubated for 20 to 22 hrs by CLSI based analysis; type: functional; settings: time 20-22 hrs
[27] = test system: Morganella morganii; assay: Antibacterial activity against Morganella morganii UM573 assessed as bacterial growth inhibition incubated for 20 to 22 hrs by CLSI based analysis; type: functional; settings: time 20-22 hrs
[28] = test system: Salmonella paratyphi; assay: Antibacterial activity against Salmonella paratyphi A CICC 21501 incubated overnight by standard microtiter dilution method; type: functional, Salmonella enterica subsp. enterica serovar Paratyphi A; settings: Salmonella enterica
[29] = test system: Pseudomonas aeruginosa; assay: Antibacterial activity against Pseudomonas aeruginosa assessed as inhibition of microbial growth by broth micro-dilution method; type: functional
[30] = test system: Escherichia coli; assay: Antibacterial activity against Escherichia coli assessed as inhibition of microbial growth by broth micro-dilution method; type: functional
[31] = test system: Staphylococcus aureus; assay: Antibacterial activity against Staphylococcus aureus assessed as inhibition of microbial growth by broth micro-dilution method; type: functional
[32] = test system: Streptococcus pyogenes; assay: Antibacterial activity against Streptococcus pyogenes assessed as inhibition of microbial growth by broth micro-dilution method; type: functional
[33] = test system: Bacillus subtilis; assay: Antibacterial activity against Bacillus subtilis ATCC 465 assessed as reduction in bacterial growth measured after 24 hrs by Mueller-Hinton broth assay; type: functional
[34] = test system: Pseudomonas aeruginosa; assay: Antibacterial activity against Pseudomonas aeruginosa ATCC 85327 assessed as reduction in bacterial growth measured after 24 hrs by Mueller-Hinton broth assay; type: functional
[35] = test system: Staphylococcus aureus; assay: Antibacterial activity against Staphylococcus aureus assessed as bacterial growth inhibition by measuring zone of inhibition at 50 ug/ml by agar cup diffusion assay; type: functional; settings: read-out: IZ
[36] = test system: Escherichia coli; assay: Antibacterial activity against Escherichia coli assessed as bacterial growth inhibition by measuring zone of inhibition at 50 ug/ml by agar cup diffusion assay; type: functional; settings: read-out: IZ
[37] = test system: Salmonella typhimurium; assay: Antibacterial activity against Salmonella typhimurium DT104 assessed as bacterial growth inhibition by measuring zone of inhibition at 50 ug/ml by agar cup diffusion assay; type: functional, Salmonella enterica subsp. enterica serovar Typhimurium; settings: Salmonella enterica, read-out: IZ
[38] = test system: Bacillus subtilis; assay: Antibacterial activity against Bacillus subtilis assessed as bacterial growth inhibition by measuring zone of inhibition at 50 ug/ml by agar cup diffusion assay; type: functional; settings: read-out: IZ
[39] = test system: Salmonella typhimurium; assay: Antibacterial activity against Salmonella typhimurium DT104 assessed as reduction in bacterial growth; type: functional, Salmonella enterica subsp. enterica serovar Typhimurium; settings: Salmonella enterica
[40] = test system: Escherichia coli; assay: Antibacterial activity against Escherichia coli ATCC 25922 assessed as bacterial growth inhibition; type: functional
[41] = test system: Staphylococcus aureus; assay: Antibacterial activity against Staphylococcus aureus ATCC 3750 assessed as reduction in bacterial growth; type: functional
[42] = test system: Bacillus subtilis; assay: Antibacterial activity against Bacillus subtilis 6633 assessed as reduction in bacterial growth; type: functional
[43] = test system: Staphylococcus aureus; assay: microbe, parasite or virus in culture; settings: ATCC 25923, 24 h
Description: Antibacterial activity against Staphylococcus aureus ATCC 25923 assessed as reduction in bacterial growth measured after 24 hrs by Mueller-Hinton broth assay

[44] = test system: Escherichia coli; assay: microbe, parasite or virus in culture; settings: ATCC 25922, 24 h
Description: Antibacterial activity against Escherichia coli ATCC 25922 assessed as reduction in bacterial growth measured after 24 hrs by Mueller-Hinton broth assay

[45] = test system: Micrococcus luteus; assay: Antimicrobial activity against Micrococcus luteus assessed as diameter of inhibition zone incubated for 24 hrs by well diffusion assay; type: functional
[46] = test system: Pseudomonas aeruginosa; assay: Antimicrobial activity against Pseudomonas aeruginosa assessed as diameter of inhibition zone incubated for 24 hrs by well diffusion assay; type: functional
[47] = test system: Bacillus subtilis; assay: Antimicrobial activity against Bacillus subtilis assessed as diameter of inhibition zone incubated for 24 hrs by well diffusion assay; type: functional
[48] = test system: Enterococcus raffinosus; assay: Antibacterial activity against Enterococcus raffinosus assessed as bacterial growth inhibition incubated for 24 hrs by CLSI protocol based Mueller-Hinton broth assay; type: functional
[49] = test system: Staphylococcus aureus; assay: Antibacterial activity against Staphylococcus aureus assessed as bacterial growth inhibition incubated for 24 hrs by CLSI protocol based Mueller-Hinton broth assay; type: functional
[50] = test system: Bacillus subtilis; assay: Antibacterial activity against Bacillus subtilis assessed as zone of inhibition at 50 microg/ml by cup plate analysis; type: functional; settings: read-out: IZ
[51] = test system: Bacillus pumilus; assay: Antibacterial activity against Bacillus pumilus assessed as zone of inhibition at 50 microg/ml by cup plate analysis; type: functional; settings: read-out: IZ
[52] = test system: Escherichia coli; assay: Antibacterial activity against Escherichia coli assessed as zone of inhibition at 50 microg/ml by cup plate analysis; type: functional; settings: read-out: IZ
[53] = test system: Proteus vulgaris; assay: Antibacterial activity against Proteus vulgaris assessed as zone of inhibition at 50 microg/ml by cup plate analysis; type: functional; settings: read-out: IZ

Cc1ccc(-c2cc(-c3ccc(Cl)cc3)nc(/N=C3/C(=O)N(CNCN4CCOCC4)c4ccc(Br)cc43)n2)cc1
MIC [1]: 156 µg/mL (≈ 247 µM)
MIC [2]: 78.1 µg/mL (≈ 124 µM)
MIC [3]: 39.1 µg/mL (≈ 61.8 µM)
MIC [4]: 39.1 µg/mL
MIC [5]: 39.1 µg/mL (≈ 61.8 µM)
MIC [6]: 78.1 µg/mL
MIC [7]: 2.44 µg/mL
MIC [8]: 0.3 µg/mL (≈ 0.475 µM)
MIC [9]: 1.22 µg/mL
MIC [10]: 19.5 µg/mL
MIC [11]: 312 µg/mL
MIC [12]: 312 µg/mL
MIC [13]: 625 µg/mL
MIC [14]: 9.76 µg/mL
MIC [15]: 312 µg/mL
MIC [16]: 9.76 µg/mL (≈ 15.4 µM)
MIC [17]: 9.76 µg/mL (≈ 15.4 µM)
MIC [18]: 312 µg/mL (≈ 494 µM)
MIC [19]: 9.76 µg/mL (≈ 15.4 µM)
MIC [20]: 4.88 µg/mL (≈ 7.72 µM)
MIC [21]: 39.1 µg/mL (≈ 61.8 µM)
MIC [22]: 312 µg/mL (≈ 494 µM)
MIC [23]: 312 µg/mL (≈ 494 µM)
MIC [24]: 156 µg/mL (≈ 247 µM)
MIC [25]: 156 µg/mL (≈ 247 µM)
MIC [26]: 39.1 µg/mL (≈ 61.8 µM)
MIC [27]: 156 µg/mL (≈ 247 µM)
MIC [28]: 39.1 µg/mL (≈ 61.8 µM)

O=C(N[C@H](CO)[C@H](O)c1ccc([N+](=O)[O-])cc1)C(Cl)Cl [CHLORAMPHENICOL]
MIC [29]: 50 µg/mL
MIC [30]: 50 µg/mL
MIC [31]: 50 µg/mL
MIC [32]: 50 µg/mL
MIC [33]: 4 µg/mL (≈ 12.4 µM)
MIC [34]: 256 µg/mL (≈ 792 µM)
zone of inhibition at 50 µg/mL [35]: 25 mm
zone of inhibition at 50 µg/mL [36]: 18 mm
zone of inhibition at 50 µg/mL [37]: 24 mm
zone of inhibition at 50 µg/mL [38]: 20 mm
MIC [39]: 6 µg/mL (≈ 18.6 µM)
MIC [40]: 4 µg/mL (≈ 12.4 µM)
MIC [41]: 5 µg/mL (≈ 15.5 µM)
MIC [42]: 6 µg/mL (≈ 18.6 µM)
MIC [43]: 8 µg/mL (≈ 24.8 µM)
MIC [44]: 4 µg/mL (≈ 12.4 µM)

Oc1ncnc(O)c1/N=N/c1ccc(/N=N/c2ccccc2)cc1
inhibition zone (IZ) [45]: 18 mm
inhibition zone (IZ) [46]: 12 mm
inhibition zone (IZ) [47]: 13 mm

CC1(C)S[C@@H]2[C@H](NC(=O)Cc3ccccc3)C(=O)N2[C@H]1C(=O)O [PENICILLIN G]
MIC [48]: 93.5 µg/mL (≈ 280 µM)
MIC [49]: 24.4 µg/mL (≈ 73 µM)
zone of inhibition at 50 µg/mL [50]: 25 mm
zone of inhibition at 50 µg/mL [51]: 29 mm
zone of inhibition at 50 µg/mL [52]: 26 mm
zone of inhibition at 50 µg/mL [53]: 28 mm
MIC [39]: 5 µg/mL (≈ 15 µM)
MIC [40]: 5 µg/mL (≈ 15 µM)
MIC [41]: 6 µg/mL (≈ 17.9 µM)
MIC [42]: 22 µg/mL (≈ 65.8 µM)

Nc1n[nH]c2nc(-c3ccccc3)nc(-c3ccc(Br)cc3)c12
MIC [48]: 12.3 µg/mL (≈ 33.6 µM)
MIC [49]: 3.8 µg/mL (≈ 10.4 µM)

— ChEMBL document CHEMBL5532639, “Heterocyclic pyrimidine derivatives as promising antibacterial agents” (Eur J Med Chem, 2023)
